Measurements reported in ChEMBL document CHEMBL1201862, “PubChem BioAssay data set” (2004).
Where “and” joins values, the source holds several entries; their conditions need not be identical. Equal entries are not always repeated.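 Dose response: 5 concentrations. Exposure: 48 h. Format: 96-well plates. Endpoint: linear interpolation; highest concentration if not reached. Abbreviation: GI50, concentration required for 50% inhibition of growth.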 Calls of active or inactive are those of the source. Rule as the data show it: active = GI50 up to about 1.1 µM and inactive = higher.

Assays:
Assay in all cases: inhibition of tumour cell growth, NCI panel, 48 h
OVCAR-3 = system: OVCAR-3
MOLT-4 = system: MOLT-4
DLD-1 = system: DLD-1
M14 = system: M14
RXF 393 = system: RXF 393
KM-20L2 = system: KM-20L2
SN12C = system: SN12C
SK-OV-3 = system: SK-OV-3
Malme-3M = system: Malme-3M
KM12 = system: KM12
RPMI-8226 = system: RPMI-8226
U-251 = system: U-251
M19-MEL = system: M19-MEL
HOP-62 = system: HOP-62
OVCAR-8 = system: OVCAR-8
RXF 631 = system: RXF 631
COLO 205 = system: COLO 205
A549 = system: A549
HL-60 = system: HL-60
LXFL 529 = system: LXFL 529
UO-31 = system: UO-31
HT-29 = system: HT-29
SF-295 = system: SF-295
K562 = system: K562
CCRF-CEM = system: CCRF-CEM
786-0 = system: 786-0
EKVX = system: EKVX
SNB-19 = system: SNB-19
SF-268 = system: SF-268
SR = system: SR
SNB-75 = system: SNB-75
TK-10 = system: TK-10
SW-620 = system: SW-620
HOP-18 = system: HOP-18
ACHN = system: ACHN
SNB-78 = system: SNB-78
SK-MEL-2 = system: SK-MEL-2
SK-MEL-5 = system: SK-MEL-5
HCT-116 = system: HCT-116
HOP-92 = system: HOP-92
UACC-257 = system: UACC-257
DMS-114 = system: DMS-114
SK-MEL-28 = system: SK-MEL-28
NCI-H522 = system: NCI-H522
NCI-H23 = system: NCI-H23
IGROV-1 = system: IGROV-1
CAKI-1 = system: CAKI-1
LOX IMVI = system: LOX IMVI
UACC-62 = system: UACC-62
HCC 2998 = system: HCC 2998
HCT-15 = system: HCT-15
PC-3 = system: PC-3
MDA-MB-231 = system: MDA-MB-231
XF498 = system: XF498
MDA-N = system: MDA-N
Hs-578T = system: Hs-578T
T47D = system: T47D
NCI-H226 = system: NCI-H226
DU-145 = system: DU-145
MCF7 = system: MCF7
MDA-MB-435 = system: MDA-MB-435
BT-549 = system: BT-549
A498 = system: A498
OVCAR-4 = system: OVCAR-4
SF-539 = system: SF-539
NCI-H460 = system: NCI-H460
OVCAR-5 = system: OVCAR-5
DMS-273 = system: DMS-273
NCI/ADR-RES = system: NCI/ADR-RES

O=c1cc(-c2ccccc2)oc2cc(OCCSCCCCCCCCCCSCCOc3ccc4c(=O)cc(-c5ccccc5)oc4c3)ccc12
GI50 (OVCAR-3): > 100 µM (inactive)
GI50 (MOLT-4): > 100 µM (inactive)
GI50 (DLD-1): > 100 µM (inactive)
GI50 (M14): > 100 µM (inactive)
GI50 (RXF 393): 37.2 µM (inactive)
GI50 (KM-20L2): > 100 µM (inactive)
GI50 (SN12C): > 100 µM (inactive)
GI50 (SK-OV-3): 74.1 µM (inactive)
GI50 (Malme-3M): > 100 µM (inactive)
GI50 (KM12): > 100 µM (inactive)
GI50 (RPMI-8226): > 100 µM (inactive)
GI50 (U-251): > 100 µM (inactive)
GI50 (M19-MEL): > 100 µM (inactive)
GI50 (HOP-62): 51.9 µM (inactive)
GI50 (OVCAR-8): > 100 µM (inactive)
GI50 (RXF 631): > 100 µM (inactive)
GI50 (COLO 205): > 100 µM (inactive)
GI50 (A549): > 100 µM (inactive)
GI50 (HL-60): > 100 µM (inactive)
GI50 (LXFL 529): > 100 µM (inactive)
GI50 (UO-31): > 100 µM (inactive)
GI50 (HT-29): > 100 µM (inactive)
GI50 (SF-295): > 100 µM (inactive)
GI50 (K562): > 100 µM (inactive)
GI50 (CCRF-CEM): > 100 µM (inactive)
GI50 (786-0): 73.5 µM (inactive)
GI50 (EKVX): > 100 µM (inactive)
GI50 (SNB-19): 51.2 µM (inactive)
GI50 (SF-268): 74.3 µM (inactive)
GI50 (SR): > 100 µM (inactive)
GI50 (SNB-75): > 100 µM (inactive)
GI50 (TK-10): > 100 µM (inactive)
GI50 (SW-620): > 100 µM (inactive)
GI50 (HOP-18): > 100 µM (inactive)
GI50 (ACHN): > 100 µM (inactive)
GI50 (SNB-78): 68.2 µM (inactive)
GI50 (SK-MEL-2): > 100 µM (inactive)
GI50 (SK-MEL-5): > 100 µM (inactive)
GI50 (HCT-116): > 100 µM (inactive)
GI50 (HOP-92): 43.5 µM (inactive)
GI50 (UACC-257): > 100 µM (inactive)
GI50 (DMS-114): > 100 µM (inactive)
GI50 (SK-MEL-28): > 100 µM (inactive)
GI50 (NCI-H522): 94.2 µM (inactive)
GI50 (NCI-H23): > 100 µM (inactive)
GI50 (IGROV-1): > 100 µM (inactive)
GI50 (CAKI-1): > 100 µM (inactive)
GI50 (LOX IMVI): > 100 µM (inactive)
GI50 (UACC-62): 65.9 µM (inactive)
GI50 (HCC 2998): > 100 µM (inactive)
GI50 (HCT-15): > 100 µM

C/C=C(\CCC1NCCc2c1[nH]c1ccccc21)[Si](C)(C)C (stereo not given)
GI50 (MOLT-4): 2.74 µM (inactive) and 4.35 µM (inactive)
GI50 (DLD-1): 3.49 µM (inactive) and 6.24 µM (inactive)
GI50 (PC-3): 5.01 µM (inactive)
GI50 (SN12C): 5.89 µM (inactive) and 3.32 µM (inactive)
GI50 (SK-OV-3): 13.4 µM (inactive) and 10.1 µM (inactive)
GI50 (Malme-3M): 1.77 µM (inactive) and 1.21 µM (inactive)
GI50 (MDA-MB-231): 2.14 µM (inactive)
GI50 (HOP-62): 11.9 µM (inactive) and 14.5 µM (inactive)
GI50 (OVCAR-8): 4.16 µM (inactive) and 7.82 µM (inactive)
GI50 (RXF 631): 5.05 µM (inactive) and 7.28 µM (inactive)
GI50 (COLO 205): 14.3 µM (inactive) and 1.8 µM (inactive)
GI50 (A549): 10.1 µM (inactive) and 6.59 µM (inactive)
GI50 (LXFL 529): 1.78 µM (inactive) and 5.01 µM (inactive)
GI50 (XF498): 1.41 µM (inactive) and 1.8 µM (inactive)
GI50 (MDA-N): 2.09 µM (inactive)
GI50 (Hs-578T): 2.05 µM (inactive)
GI50 (K562): 3.57 µM (inactive) and 6.67 µM (inactive)
GI50 (T47D): 2.22 µM (inactive)
GI50 (EKVX): 14.7 µM (inactive) and 8.41 µM (inactive)
GI50 (SF-268): 11.2 µM (inactive) and 5.96 µM (inactive)
GI50 (SNB-75): 5.97 µM (inactive) and 6.5 µM (inactive)
GI50 (NCI-H226): 10.9 µM (inactive) and 7.76 µM (inactive)
GI50 (DU-145): 12.6 µM (inactive)
GI50 (MCF7): 2.02 µM (inactive)
GI50 (MDA-MB-435): 3.37 µM (inactive)
GI50 (HOP-18): 6.79 µM (inactive) and 20.1 µM (inactive)
GI50 (SNB-78): 4.9 µM (inactive) and 9.31 µM (inactive)
GI50 (BT-549): 10.8 µM (inactive)
GI50 (A498): 2.67 µM (inactive) and 6.5 µM (inactive)
GI50 (LOX IMVI): 2.28 µM (inactive) and 20.3 µM (inactive)
GI50 (UACC-62): 5.86 µM (inactive) and 5.27 µM (inactive)
GI50 (OVCAR-4): 3.03 µM (inactive) and 5.81 µM (inactive)
GI50 (HCT-15): 18.7 µM and 2.25 µM

O=C(c1ccccc1)C1OC12C(=O)Nc1ccccc12 (stereo not given)
GI50 (OVCAR-3): 34.8 µM (inactive)
GI50 (MOLT-4): 8.15 µM (inactive)
GI50 (DLD-1): 32.7 µM (inactive)
GI50 (M14): 21.8 µM (inactive)
GI50 (RXF 393): 20.9 µM (inactive)
GI50 (KM-20L2): 28.1 µM (inactive)
GI50 (SN12C): 49.4 µM (inactive)
GI50 (SK-OV-3): 35.6 µM (inactive)
GI50 (Malme-3M): 29.6 µM (inactive)
GI50 (RPMI-8226): 20.7 µM (inactive)
GI50 (M19-MEL): 30.4 µM (inactive)
GI50 (HOP-62): 62.5 µM (inactive)
GI50 (OVCAR-8): 32.5 µM (inactive)
GI50 (RXF 631): 46 µM (inactive)
GI50 (COLO 205): 18 µM (inactive)
GI50 (A549): 46.7 µM (inactive)
GI50 (HL-60): 3.27 µM (inactive)
GI50 (LXFL 529): 16.5 µM (inactive)
GI50 (UO-31): 26.5 µM (inactive)
GI50 (HT-29): 19.7 µM (inactive)
GI50 (XF498): 26.2 µM (inactive)
GI50 (SF-295): 27 µM (inactive)
GI50 (K562): 4.5 µM (inactive)
GI50 (CCRF-CEM): 5.68 µM (inactive)
GI50 (786-0): 45.7 µM (inactive)
GI50 (EKVX): 47.6 µM (inactive)
GI50 (SNB-19): 37.3 µM (inactive)
GI50 (SF-268): 59.8 µM (inactive)
GI50 (SNB-75): 15.2 µM (inactive)
GI50 (NCI-H226): 33.4 µM (inactive)
GI50 (TK-10): 40.3 µM (inactive)
GI50 (SF-539): 23.7 µM (inactive)
GI50 (NCI-H460): 41.7 µM (inactive)
GI50 (SW-620): 21.4 µM (inactive)
GI50 (ACHN): 56.9 µM (inactive)
GI50 (SNB-78): 43.5 µM (inactive)
GI50 (SK-MEL-2): 44.2 µM (inactive)
GI50 (SK-MEL-5): 11.3 µM (inactive)
GI50 (HCT-116): 36.2 µM (inactive)
GI50 (A498): 73.1 µM (inactive)
GI50 (HOP-92): 20.3 µM (inactive)
GI50 (OVCAR-5): > 100 µM (inactive)
GI50 (UACC-257): 35.7 µM (inactive)
GI50 (DMS-114): 27 µM (inactive)
GI50 (SK-MEL-28): 29.6 µM (inactive)
GI50 (NCI-H522): 13.3 µM (inactive)
GI50 (NCI-H23): 21.5 µM (inactive)
GI50 (IGROV-1): 47.6 µM (inactive)
GI50 (CAKI-1): 20.8 µM (inactive)
GI50 (LOX IMVI): 45 µM (inactive)
GI50 (UACC-62): 40.7 µM (inactive)
GI50 (OVCAR-4): 47.8 µM (inactive)
GI50 (HCT-15): > 10 µM
GI50 (DMS-273): 38 µM (inactive)

CC(=O)OCC1OC(n2c(=S)n(-c3ccc([N+](=O)[O-])cc3)c(=O)c3ccccc32)C(OC(C)=O)C(OC(C)=O)C1OC(C)=O (stereo not given)
GI50 (OVCAR-3): 17.1 µM (inactive)
GI50 (MOLT-4): 8.22 µM (inactive)
GI50 (PC-3): 15.8 µM (inactive)
GI50 (KM-20L2): 28.3 µM (inactive)
GI50 (SN12C): 19.1 µM (inactive)
GI50 (SK-OV-3): 23.3 µM (inactive)
GI50 (Malme-3M): 15.2 µM (inactive)
GI50 (U-251): 18.4 µM (inactive)
GI50 (HOP-62): 21.6 µM (inactive)
GI50 (OVCAR-8): 20.1 µM (inactive)
GI50 (RXF 631): 19.2 µM (inactive)
GI50 (COLO 205): 27.5 µM (inactive)
GI50 (HT-29): 21 µM (inactive)
GI50 (SF-295): 23.3 µM (inactive)
GI50 (MDA-N): 27.7 µM (inactive)
GI50 (Hs-578T): 4.46 µM (inactive)
GI50 (T47D): 17.3 µM (inactive)
GI50 (786-0): 15.3 µM (inactive)
GI50 (SNB-19): 19.9 µM (inactive)
GI50 (SF-268): 18.5 µM (inactive)
GI50 (SF-539): 14.3 µM (inactive)
GI50 (DU-145): 24.9 µM (inactive)
GI50 (NCI-H460): 21.7 µM (inactive)
GI50 (MCF7): 16.7 µM (inactive)
GI50 (MDA-MB-435): 27 µM (inactive)
GI50 (NCI/ADR-RES): 30.7 µM (inactive)
GI50 (HOP-18): 13.4 µM (inactive)
GI50 (BT-549): 2.69 µM (inactive)
GI50 (A498): 25.5 µM (inactive)
GI50 (HOP-92): 25.5 µM (inactive)
GI50 (NCI-H522): 15.4 µM (inactive)
GI50 (NCI-H23): 21.3 µM (inactive)
GI50 (LOX IMVI): 13.2 µM (inactive)
GI50 (UACC-62): 15.7 µM (inactive)
GI50 (OVCAR-4): 20.8 µM (inactive)
GI50 (HCT-15): 29.3 µM
GI50 (DMS-273): 21.9 µM (inactive)
